From patent publication US4196216A, “Novel benzylidene amini-oxyalkyl carboxylic acids and carboxylic acid derivatives” (U.S. Philips Corporation, priority 1968, dated 1980)

Columns and labels:
[1] = acute toxicity (LD50 table, level of toxicity); conditions: in vivo
Excerpt: This low level of toxicity appears from the following table: […]

[2] = anti-inflammatory and analgetic activities, general statement; type: in vivo; conditions: test not specified
Rhine virus = assay: activity against Rhine virus
[3] = known compound, background, cited from earlier work
[4] = route of administration: par(enteral)
[5] = po, route of administration: or(al)

Compound | LD50 at 24 h [1, 4] | LD50 at 24 h [1, 5] | also measured
CC(=NOCC(=O)O)c1ccc(C)cc1 [CH3 H H CH3 CH2 OH] | > 320 mg/kg | – | –
CC(=NOCCC(N)=O)c1ccc(Cl)cc1 [C1 H H CH3 (CH2)2 NH2, 3-[(α-methyl-4-chlorobenzylideneamino)oxy] propionamide] | – | > 1000 mg/kg | –
CC(=NOCC(=O)N(C)C)c1ccc(Cl)cc1 [C1 H H CH3 CH2 (CH3)2 N, [(α-methyl-4-chlorobenzylidene amino)oxy]-N,N-dimethyl acetamide] | – | > 1000 mg/kg | –
COC(=O)CON=C(C)c1ccc(Cl)cc1 [C1 H H CH3 CH2 OCH3, [(α-methyl-4-chlorobenzylidene amino)oxy] acetic acid methyl ester] | – | > 1000 mg/kg | LD50 at 48 h [1, 5]: > 1000 mg/kg; activities [2]: particularly strong activities
CC(=NOCC(=O)O)c1cccc(Cl)c1 [H C1 H CH3 CH2 OH] | > 320 mg/kg | – | –
CC(=NOCC(=O)O)c1ccc(Br)cc1 [Br H H CH3 CH2 OH] | > 100 mg/kg | – | –
CC(=NOCC(N)=O)c1ccc(Cl)c(Cl)c1 [C1 C1 H CH3 CH2 NH2, [(α-methyl-3,4-dichlorobenzylidene amino)oxy] acetamide] | – | ~1000 mg/kg | activity against Rhine virus (Rhine virus): interesting activity
CC(=NOCC(=O)O)c1ccc(Cl)cc1 [C1 H H CH3 CH2 OH, [(α-methyl-4-chlorobenzylidene amino)oxy] acetic acid] | – | > 1000 mg/kg | LD50 at 48 h [1, 5]: > 1000 mg/kg; activities [2]: particularly strong activities
CCCCNC(=O)CON=C(C)c1ccc(Cl)cc1 [N-n.butyl-[(α-methyl-4-chlorobenzylideneamino)oxy] acetamide] | – | – | activity against Rhine virus (Rhine virus): interesting activity
COc1ccc2c(c1)c(CC(=O)O)cn2-c1ccc(Cl)cc1 [(N-p.chlorophenyl-5-methoxy indolyl-3) acetic acid] | – | – | potency [3]: highly potent; toxicity level [3]: high toxicity level; therapeutic level ([3]; due to high toxicity): quite low
O=C(O)CON=Cc1ccc(Cl)cc1 [C1 H H H CH2 OH, [(4-chlorobenzylidene amino)oxy] acetic acid] | > 320 mg/kg | – | –
CC(=NOCC(N)=O)c1ccc(Cl)cc1 [C1 H H CH3 CH2 NH2, [(α-methyl-4-chlorobenzylidene amino)oxy]acetamide] | – | > 1000 mg/kg | activity against Rhine virus (Rhine virus): interesting activity; LD50 at 48 h [1, 5]: > 1000 mg/kg; activities [2]: particularly strong activities
CCCCCCCCOC(=O)CON=C(C)c1ccc(Cl)cc1 [C1 H H CH3 CH2 OnC8 H17] | – | > 1000 mg/kg | –
CC(=NOCCCC(=O)O)c1ccc(Cl)cc1 [C1 H H CH3 (CH2)3 OH, 4-[(α-methyl-4-chlorobenzylideneamino)oxy] butyric acid] | > 320 mg/kg | – | activity against Rhine virus (Rhine virus): interesting activity
CC(=NOCC(=O)OC(C)C)c1ccc(Cl)cc1 [C1 H H CH3 CH2 OCH(CH3)2] | – | > 1000 mg/kg | –
CC(=NOCC(=O)O)c1ccc(Cl)c(Cl)c1 [C1 C1 H CH3 CH2 OH, [(α-methyl-3,4-dichlorobenzylene amino)oxy] acetic acid] | > 320 mg/kg | – | –
CC(=NOCC(=O)OCc1ccccc1)c1ccc(Cl)cc1 [C1 H H CH3 CH2 OCH2 C6 H5] | – | > 1000 mg/kg | –
CNC(=O)CON=C(C)c1ccc(Cl)cc1 [C1 H H CH3 CH2 NHCH3, [(α-methyl-4-chlorobenzylidene amino)oxy]-N-methyl acetamide] | – | > 1000 mg/kg | –
CC(=NOCC(=O)O)c1ccc(S(C)(=O)=O)cc1 [CH3 SO2 H H CH3 CH2 OH] | > 320 mg/kg | – | –
CC(=NOCC(=O)O)c1ccc(Cl)cc1Cl [C1 H C1 CH3 CH2 OH, [(α-methyl-2,4-dichlorobenzylidene amino)oxy] acetic acid] | > 320 mg/kg | – | activity against Rhine virus (Rhine virus): interesting activity
CC(=NOCCC(=O)O)c1ccc(Cl)cc1 [C1 H H CH3 (CH2)2 OH, 3-[(α-methyl-4-chlorobenzylideneamino)oxy] propionic acid] | > 100 mg/kg | – | –
CC(=NOCC(=O)NN)c1ccc(Cl)cc1 [C1 H H CH3 CH2 NHNH2, [(α-methyl-4-chlorobenzylidene amino)oxy] acet hydrazide] | – | ~1000 mg/kg | activity against Rhine virus (Rhine virus): interesting activity
